What all share (experiment): growth of human tumour cells (NCI), 48 h
Assay [1] has as its system DLD-1 colon.
Assay [2] concerns DMS 273 small cell lung.
The subject of assay [3] is HCT-15 colon.
Assay [4] has as its system KM20L2 colon.
In assay [5] the test system is LXFL 529 NSCLC.
Assay [6] deals with M14 melanoma.
Assay [7] has as its system M19-MEL melanoma.
Assay [8] has as its system RXF-631 renal.
Assay [9] concerns SNB-78 CNS.
Assay [10] relates to U251 CNS.
The subject of assay [11] is XF 498 CNS.
The test system of assay [12] is DMS 114 small cell lung.
Assay [13] has as its system OVCAR-3 ovarian.
For assay [14], the system named is HOP-18 NSCLC.
In assay [15] the test system is BT-549 breast.
The test system of assay [16] is MDA-MB-435.

The source of these data is PubChem BioAssay (NCI).

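These data come from cells grown in 96-well plates and exposed to compound for 48 hours at five concentrations. TGI: concentration producing complete growth inhibition.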 Bounds are passed on as bounds.

Regarding `COC(=O)/C(=C/c1ccc(OC)cc1)C(C(=O)O)=C1CCCCC1`, the TGI in [1], in assay [2], in assay [3], in assay [4], in assay [5] and in assay [6] was over 100 µM throughout. In addition, the TGI in assay [7], in assay [8], in [9], in assay [10] and in assay [11] was over 100 µM throughout.

Consider `CCCCCCCCCC(=O)NC(Cc1ccc(O)cc1)C(=O)NCCCNCCCCNCCCNC(=O)[C@@H](N)CCCN=C(N)N` (stereo partly specified), for which the TGI in assay [12] is over 100 µM; in assay [2], 42.9 µM; in assay [3], over 100 µM; in assay [4], over 100 µM; in assay [5], over 100 µM; in assay [6], over 100 µM. Moreover, the TGI in assay [7], in assay [13] and in assay [11] was over 100 µM in each case.

Regarding `O/N=C\C(=Nc1ccc(Cc2ccc(N=C(/C=N\O)NO)cc2)cc1)NO`, the TGI in assay [1], in assay [12], in [2], in [3], in assay [14] and in assay [4] was over 100 µM each time. Further, the TGI in [5], in assay [6], in [7], in assay [13], in assay [9] and in assay [10] was over 100 µM in each case. In assay [11], this compound displayed a TGI of over 100 µM.

With `COc1ccc(/C(Cl)=C(\C=O)c2ccc(Cl)cc2)cc1OC`, the TGI in [1] was over 100 µM; in [12], 59.5 µM; in assay [2] it was over 100 µM; in [3], over 100 µM; in [14], over 100 µM; in assay [4], 31.9 µM. In addition, the TGI in assay [5] was 37.4 µM; in assay [6], 97.3 µM; in assay [7], 48.3 µM; in [13] it was 31.7 µM; in [8], over 100 µM; in assay [9], over 100 µM. For the same compound, the TGI in assay [10] stood at 14.7 µM.

With `O=C(O)c1ccc(Nc2nc3nn(Cc4ccccc4)cc3c(=O)s2)cc1`, the TGI in [1], in assay [12], in assay [2], in assay [3], in [14] and in assay [4] was over 100 µM each time. Also, the TGI in assay [5], in assay [6], in assay [7], in assay [13], in assay [9] and in [10] was over 100 µM in each case.

As for `CC[n+]1c(/C=C/c2ccc(N(CCCl)CCCl)cc2)ccc2cc(I)ccc21`, the TGI was 6.14 µM in [1]; over 100 µM in assay [12]; 28.1 µM in assay [3]; 8.54 µM in [14]; 1.88 µM in [4]; 1.52 µM in assay [5]. The TGI in assay [13] was found to be 1.12 µM; in assay [9], 36 µM.

Consider `CN1NC(c2ccccc2)=C(C#N)C(=O)CC1c1ccc(Br)cc1` (stereo unspecified), for which the TGI was over 100 µM in [1]; over 100 µM in [3]; over 100 µM in assay [14]; over 100 µM in [5]; 45.8 µM in [6]; over 100 µM in [9]. Also, the TGI in assay [11] came to 78.2 µM.

As for `OC12c3ccccc3C1CCCCCC21OCCCO1` (stereo unspecified), the TGI in assay [1], in [12], in [2], in assay [3], in assay [14] and in assay [4] was over 100 µM throughout. For the same compound, the TGI in assay [5], in assay [6], in assay [7], in assay [13], in [9] and in assay [10] was over 100 µM in each case.

Regarding `CCOC(=O)C1(C(=O)OCC)C=C(c2ccccc2)N(C2OC(COC(C)=O)C(OC(C)=O)C(OC(C)=O)C2OC(C)=O)C1=S` (stereo unspecified), the TGI in [15], in assay [3], in assay [6], in [16], in assay [13] and in assay [10] was over 100 µM in each case.

Consider `N#Cc1c(-c2ccccc2)cc(Nc2ccc(Cl)cc2)n2c1nc1ccccc12`, for which the TGI is over 100 µM in assay [15]; over 88 µM in [3]; over 100 µM in assay [6]; over 100 µM in assay [16]; 11 µM in assay [13]; 97.5 µM in assay [10].

For `C/C(O)=C(\C=NC(=S)c1ccncc1)C(=O)Nc1ccccc1C`, the TGI in assay [15], in assay [3], in assay [6], in [16], in [13] and in assay [10] was over 100 µM in each case.

For the compound `O=C(c1ccco1)N(C(=S)N1CCN(c2ccccn2)CC1)c1ccccc1`, the TGI in [1], in [12], in assay [2], in [3], in [14] and in assay [4] was over 100 µM each time. The TGI in assay [5], in assay [6], in assay [7], in [13], in assay [9] and in assay [10] was over 100 µM in each case. In [11], this compound had a TGI of over 100 µM.
